The source of these data is patent EP0909175B1, “NON-AQUEOUS PROTIC PEPTIDE FORMULATIONS” (ALZA CORPORATION, priority 1996, dated 1998).

Assay type in all cases: physicochemical
Series [1] is described as follows: Solubility studies of leuprolide acetate in PG (Example 3). To be noted: in PG (w/w), heated at 80°C to accelerate dissolution. As for the experimental part: Leuprolide acetate (obtained, for example, from Mallinckrodt, St. Louis, Missouri) was weighed and dissolved using heat (80°C), swirling, agitation and/or centrifugation as needed, in vehicle (PG, PEG, MPEG, PG/H2O, PG/H2O, PEG/PG, MPEG/H2O, or PG with EDTA) at the appropriate concentration (w/w). Unless otherwise noted the term PEG means PEG 300. The term dry PG refers to PG formulations prepared in a low moisture environment (i.e., dry N2 atmosphere). Leuprolide acetate formulations in PG were prepared as described above. Formulations were heated at 80°C to accelerate the dissolution of leuprolide in PG.

The nature of series [2]: Anti-gellant effect of adding polar aprotic solvents (DMSO) to non-aqueous protic solvent formulations. The settings on record: adding polar aprotic solvents such as DMSO to non-aqueous protic solvent formulation. An excerpt:
For example, leuprolide can be induced to gel by increasing peptide concentration, introduction of salts or gentle agitation. Improving physical stability can allow for easier parenteral administration, including administration using implantable drug delivery systems.
Thus, these solvents have an anti-gellant effect.

Series [3] can be described thus: Stability of goserelin formulations, one month at 37°C, RP-HPLC (Example 10). To be noted: for % CONCENTRATION: patent calls % concentration data unreliable. Here is the method: (§1) Stability samples were analyzed using RP-HPLC. The area under the curve for the leuprolide peak divided by the sum of the areas under the curve of all peaks gave % purity. [It should be noted that the data for % concentration presented with the % purity data (Examples 6, 8, 9 and 10) are inconclusive. The analysis methods used to determine % concentration in these experiments were unreliable.]
Formulations of 40-45% (w/w) goserelin in either PEG 600 or PG/acetate buffer (30:70) were prepared as described above and placed in polymeric containers. The containers were stored at 37°C for one month in an incubator. The samples were analyzed using RP-HPLC to determine the chemical stability of the aged formulations.

Series [4] is described as follows: Stability of nafarelin formulations, one month at 37°C, RP-HPLC (Example 11). To be noted: for % CONCENTRATION: % concentration method called unreliable. As for the experimental part:
as §1
Formulations of 15% (w/w) nafarelin in either PEG 600 or propylene glycol were prepared as described above for leuprolide and placed in polymeric containers.
The containers were stored at 37°C for one month in an incubator.
The samples were analyzed using RP-HPLC to determine the chemical stability of the aged formulations.

Setting [5] is: vehicle PEG 600, one month at 37°C.

Leuprolide acetate: the “% Leuprolide Acetate” value amounted to 49.93% in series [1] (146.8 mg leuprolide acetate in 147.2 mg PG), 39.70% in series [1] (148.6 mg leuprolide acetate in 225.7 mg PG) and 45.60% in series [1] (154 mg leuprolide acetate in 183.7 mg PG).
Turning to calcitonin, the “gelation of the formulation” value in series [2] is listed as “prevents gelation”.
goserelin: the “% PURITY” value stood at 99.3% in series [3] (vehicle PEG 600, 40-45% (w/w), one month at 37°C) and 98.2% in series [3] (vehicle PG/Acetate Buffer(30:70), 40-45% (w/w), one month at 37°C). The “% CONCENTRATION” value in series [3] (setting [5]) turned out to be 23.6%; in series [3] (vehicle PG/Acetate Buffer(30:70), one month at 37°C), 49.7%. In series [2], the “gelation of the formulation” value is “prevents gelation”.
As to leuprolide, the “gelation of the formulation” value in series [2] is “prevents gelation”.
Consider nafarelin, for which the “% PURITY” value worked out at 99.4% in series [4] (vehicle PEG 600, 15% (w/w), one month at 37°C) and 99.4% in series [4] (vehicle PG, 15% (w/w), one month at 37°C). The “% CONCENTRATION” value stood at 15.8% in series [4] (setting [5]) and 12.9% in series [4] (vehicle PG, one month at 37°C).
